Test results published in US8957058B2, “Insecticidal pyrrolidin-yl-aryl-carboxamides” (Syngenta Participations AG, priority 2010, dated 2015).

Tests used:
Type in all cases: in vivo
[1] = system: Diabrotica balteata (Corn Root Worm); assay: Diabrotica balteata L2 larvae test on artificial diet; settings: for % Control at 12.5 ppm, Diabrotica balteata / % Control at 200 ppm, Diabrotica balteata: enantiomer comparison, 5 days incubation; for Control, Diabrotica balteata (Corn root worm): application rate 12 ppm
Protocol: Diabrotica balteata (Corn Root Worm): A 24-well microtiter plate (MTP) with artificial diet was treated with test solutions at an application rate of 200 ppm (concentration in well […]) by pipetting. After drying, the MTP's were infested with L2 larvae (6-10 per well). After an incubation period of 5 days, samples were checked for larval mortality and growth regulation. Diabrotica balteata (Corn Root Worm): A 24-well microtiter plate (MTP) with artificial diet was treated with test solutions at an application rate of 12.5 ppm (concentration in well […]) by pipetting. After drying, the MTP's were infested with L2 larvae (6-10 per well). After an incubation period of 5 days, samples were checked for larval mortality and growth regulation.

[2] = system: Plutella xylostella (Diamond Back Moth); assay: Plutella xylostella L2 larvae test on artificial diet; settings: enantiomer comparison, 6 days incubation
Protocol: […] After drying, the MTP's were infested with L2 larvae (7-12 per well). After an incubation period of 6 days, samples were checked for larval mortality and growth regulation. […] After drying, the MTPs were infested with L2 larvae (7-12 per well). After an incubation period of 6 days, samples were checked for larval mortality and growth regulation.

[3] = system: Heliothis virescens (Tobacco Budworm); assay: Heliothis virescens egg test on artificial diet; settings: for % Control at 12.5 ppm, Heliothis virescens / % Control at 200 ppm, Heliothis virescens: enantiomer comparison, 4 days incubation
Protocol: Heliothis virescens (Tobacco Budworm): Eggs (0-24 h old) were placed in 24-well microtiter plate on artificial diet and treated with test solutions at an application rate of 200 ppm (concentration in well 18 ppm) by pipetting. After an incubation period of 4 days, samples were checked for egg mortality, larval mortality, and growth regulation. Heliothis virescens (Tobacco Budworm): Eggs (0-24 h old) were placed in 24-well microtiter plate on artificial diet and treated with test solutions at an application rate starting at 200 ppm (concentration in well 18 ppm) by pipetting. After an incubation period of 4 days, samples were checked for egg mortality, larval mortality, and growth regulation.

[4] = system: Thrips tabaci (Onion Thrips); assay: Thrips tabaci sunflower leaf disc spray test; settings: enantiomer comparison, 7 days incubation
Protocol: Thrips tabaci (Onion Thrips): Sunflower leaf discs were placed on agar in a 24-well microtiter plate and sprayed with test solutions at an application rate of 200 ppm. After drying, the leaf discs were infested with a thrip population of mixed ages. After an incubation period of 7 days, samples were checked for mortality. Thrips tabaci (Onion Thrips): Sunflower leaf discs were placed on agar in a 24-well microtiter plate and sprayed with test solutions at an application rate of 50 ppm. After drying, the leaf discs were infested with a thrip population of mixed ages. After an incubation period of 7 days, samples were checked for mortality.

[5] = system: Tetranychus urticae (Two-Spotted Spider Mite); assay: Tetranychus urticae bean leaf disc spray test; settings: for % Control at 12.5 ppm, Tetranychus urticae / % Control at 200 ppm, Tetranychus urticae: enantiomer comparison, checked 8 days later; for Control, Tetranychus urticae (Two-spotted spider mite): application rate 12 ppm
Excerpt: […] After drying, the leaf discs are infested with mite populations of mixed ages. 8 days later, discs are checked for egg mortality, larval mortality, and adult mortality. […] After drying, the leaf discs are infested with mite populations of mixed ages. 8 days later, discs are checked for egg mortality, larval mortality, and adult mortality.

[6] = system: Spodoptera littoralis (Egyptian Cotton Leaf Worm); assay: Spodoptera littoralis (systemic) test via salad grown on treated agar; settings: 5 days after infestation
Excerpt: Spodoptera littoralis (Systemic) (Egyptian Cotton Leaf Worm) Test compounds were applied by pipette into 24 well plates and mixed with agar. Salad seeds were placed on the agar and the multi well plate is closed by another plate which contains also agar. After 7 days the roots have absorbed the compound and the salad has grown into the lid plate. The salad leafs were now cut off into the lid plate. Spodoptera eggs were pipette through a plastic stencil on a humid gel blotting paper and the plate closed with it. The samples are checked for mortality, repellent effect, feeding behavior, and growth regulation 5 days after infestation.

Row | Structure (SMILES) | % Control at 12.5 ppm, Diabrotica balteata [1] | % Control at 200 ppm, Diabrotica balteata [1] | % Control at 12.5 ppm, Plutella xylostella [2] | % Control at 200 ppm, Plutella xylostella [2] | % Control at 12.5 ppm, Heliothis virescens [3] | % Control at 200 ppm, Heliothis virescens [3] | % Control at 200 ppm, Thrips tabaci [4] | % Control at 12.5 ppm, Tetranychus urticae [5] | % Control at 200 ppm, Tetranychus urticae [5] | % Control at 12.5 ppm, Spodoptera littoralis [6] | % Control at 200 ppm, Spodoptera littoralis [6] | Control, Diabrotica balteata (Corn root worm) [1] | Control, Heliothis virescens (Tobacco budworm) ([3]; application rate 3 ppm) | Control, Tetranychus urticae (Two-spotted spider mite) [5] | Control, Heliothis virescens (Tobacco budworm) ([3]; application rate 0.8 ppm)
1 | Cc1cc(N2CCC(c3cc(Cl)cc(Cl)c3)(C(F)(F)F)C2)ccc1C(=O)NC1CS(=O)(=O)C1 (single isomer, unassigned) [Compound A5b] | 0% | 0% | 0% | 100% | 0% | 100% | 0% | 0% | 0% | 0% | 100% | – | – | – | –
2 | Cc1cc(N2CCC(c3cc(Cl)cc(Cl)c3)(C(F)(F)F)C2)ccc1C(=O)NC1CS(=O)(=O)C1 (centres unmarked) [Compound A5] | – | – | – | – | – | – | – | – | – | – | – | 100% | 80% | 100% | –
3 | Cc1cc(N2CCC(c3cc(Cl)cc(Cl)c3)(C(F)(F)F)C2)ccc1C(=O)NC1CS(=O)(=O)C1 (single isomer, unassigned) [Compound A5a] | 100% | 100% | 100% | 100% | 100% | 100% | 90% | 100% | 100% | 100% | 100% | – | – | – | –
4 | Cc1cc(N2CCC(c3cc(Cl)cc(Cl)c3)(C(F)(F)F)C2)ccc1C(=O)NC1C[S+]([O-])C1 (centres unmarked) [Compound A1] | – | – | – | – | – | – | – | – | – | – | – | 80% | – | 100% | 100%
5 | Cc1cc(N2CCC(c3cc(Cl)cc(Cl)c3)(C(F)(F)F)C2)ccc1C(=O)NCc1ccccn1 (centres unmarked) [Compound 1-4 of WO08128711, reference compound] | – | – | – | – | – | – | – | – | – | – | – | 0% | 50% | 0% | 0%
6 | Cc1cc(N2CCC(c3cc(Cl)cc(Cl)c3)(C(F)(F)F)C2)ccc1C(=O)NC1CSC1 (centres unmarked) [Compound A4] | – | – | – | – | – | – | – | – | – | – | – | 100% | 80% | 100% | –
